Laboratory results as given in patent US3991187A, “Medicinal compositions and methods of use involving phosphoric acid esters” (Aktiebolaget Leo, priority 1971, dated 1976).

Experiments:
[1] = system: Slow Reacting Substance (SRS); test: antagonism to Slow Reacting Substance on the isolated guinea-pig ileum (Mathe & Strandberg); type: cell-based
Experimental: The antagonism to Slow Reacting Substance (SRS) is determined on the isolated guinea-pig ileum as described by Mathe & Strandberg (Acta physiol. scand. 82:460, 1971). Purified SRS is obtained from cat paws perfused with compound 48/80 (Strandberg & Uvnas: Acta physiol. scand. 82:358, 1971). Sodium bis(4-(3-oxo-3-(2,4,6-trihydroxyphenyl)propyl)phenyl) phosphate was tested in this system in several concentrations.

PGE1 = test: prostaglandin-stimulated glycolysis of the prepubertal ovary (lactic acid production); type: cell-based, rats; conditions: compared with the compound giving 50% reduction at 50-100 μg/ml
Experimental: The action of esters of the present invention on the prostaglandin-stimulated glycolysis of the prepubertal ovary is investigated. The method used has been described in detail by Perklev & Ahren (Life Sciences Part I, 10:1387, 1971). In these experiments ovaries from prepubertal rats are removed and placed in Erlenmeyer flasks containing compounds of this invention dissolved in Krebs biocarbonate buffer. After that the ovaries have been preincubated during 60 min. at 37° C in this medium, they are blotted on filter paper and then washed for 2 min. in plain buffer. The ovaries are then transferred to a new incubation medium containing prostaglandins (PG) dissolved in Krebs bicarbonate buffer and incubated at 37° C for 2 hrs with continuous shaking. The ovarian glycolysis is then determined by measuring the concentration of lactic acid in the incubation medium. When polyphloretin phosphate (PPP) is present in the preincubation medium in a concentration of 500 μg/ml, the subsequent ovarian lactic acid production produced by PGE1 is reduced to about 50% of that obtained with ovaries preincubated in plain buffer. When sodium bis(4-(3-(2,4,6-trihydroxyphenyl)propyl)phenyl)phosphate is investigated in the same experimental system, a 50% reduction of the lactate production is seen when only 50-100 μg/ml of the compound is present in the preincubation medium.

[2] = system: prostaglandins E1, E2 F1α and F2α; test: PG-inhibitory effect on the isolated gerbil colon; type: cell-based, Gerbils (Meriones unguiculatus); conditions: gerbil colon
Experimental: The PG-inhibitory effect of esters of the present invention on the gerbil colon are determined using the general technique described by Eakins, Miller & Karim (J. Pharm. Exp. Ther. 176:441, 1971). Gerbils (Meriones unguiculatus) of own breed, both sexes, weighing 50-80 g are used. The animal is stunned, colon ascendens immediately removed, and a 2-3 cm piece mounted in a 6 ml bath containing a modified de Jalon solution at 28° C and continuously oxygenated. Contractions of the organ are registered either isotonically or isometrically. When testing the inhibitory effect of a compound this is added to the bath 2 min before the addition of prostaglandin. […] Several concentrations of each antagonist are used.

gerbil colon = test: smooth muscle stimulatory effect on the gerbil colon in vivo; parameters: species or system mongolian gerbils; conditions: i.v., same dose range (from 40 mg/kg)
Experimental: This example illustrates the smooth muscle stimulatory effect of esters of this invention on the gerbil colon in vivo.
The experiments are performed with mongolian gerbils, anesthetized with pentobarbital, 50 mg/kg. The ascending colon is exposed and carefully stretched between silk thread loops and a strain-gauge transducer.
After a stable base-line has been established an ester of this invention, sodium bis (4-(3-oxo-3-(2,4,6-trihydroxyphenyl)-propyl)phenyl) phosphate is infused i.v.
In doses from 40 mg/kg this treatment causes the gut to respond with a series of contractions.

Compound | inhibition of SRS [1] | prostaglandin inhibiting activity (PGE1) | selective inhibitory effects compared with PPP [2] | contraction of the colon (gerbil colon)
O=C(C=Cc1ccc(O)cc1)c1c(O)cc(OP(=O)([O-])Oc2cc(O)c(C(=O)C=Cc3ccc(O)cc3)c(O)c2)cc1O.[Na+] [sodium bis(3,5-dihydroxy-4-(3-(4-hydroxyphenyl)-acryloyl)phenyl) phosphate] | inhibit SRS | same order | – | –
O=C(CCc1cccc(OP(=O)(O)Oc2cccc(CCC(=O)c3ccc(OP(=O)(O)O)cc3)c2)c1)c1ccc(OP(=O)(O)O)cc1 [bis(dihydrogen phosphate) of bis(3-(3-(4-hydroxyphenyl)-3-oxopropyl)phenyl hydrogen phosphate] | inhibit SRS | same order | equal to or superior to that of PPP | –
COc1cc(CCC(=O)c2cccc(OP(=O)([O-])Oc3cccc(C(=O)CCc4ccc(O)c(OC)c4)c3)c2)ccc1O.[Na+] [sodium bis(3-(3-(4-hydroxy-3-methoxyphenyl)propionyl)phenyl) phosphate] | inhibit SRS | – | equal to or superior to that of PPP | –
O=C([O-])Cc1ccc(C(=O)CCc2cccc(OP(=O)([O-])Oc3cccc(CCC(=O)c4ccc(CC(=O)[O-])cc4)c3)c2)cc1.[Na+].[Na+].[Na+] [trisodium bis(3-(3-(4-carboxylatomethylphenyl)-3-oxopropyl)phenyl) phosphate] | inhibit SRS | same order | equal to or superior to that of PPP | –
O=C(CCCc1ccc(OP(=O)([O-])Oc2ccc(CCCC(=O)c3ccc(O)cc3O)cc2)cc1)c1ccc(O)cc1O.[Na+] [sodium bis(4-(4-(2,4-dihydroxyphenyl)-4-oxobutyl)phenyl) phosphate] | inhibit SRS | same order | equal to or superior to that of PPP | –
COc1ccc(CCC(=O)c2c(O)cccc2O)cc1OP(=O)([O-])Oc1cc(CCC(=O)c2c(O)cccc2O)ccc1OC.[Na+] [sodium bis(5-(3-(2,6-dihydroxyphenyl)-3-oxopropyl)-2-methoxyphenyl)phosphate] | inhibit SRS | same order | equal to or superior to that of PPP | –
O=C(CCc1cccc(OP(=O)([O-])Oc2cccc(CCC(=O)c3ccccc3O)c2)c1)c1ccccc1O.[Na+] [sodium bis(3-(3-(2-hydroxyphenyl)-3-oxopropyl)phenyl) phosphate] | inhibit SRS | – | equal to or superior to that of PPP | –
COc1ccc(C(=Cc2ccc(C(=O)[O-])cc2)C(=O)c2ccc(OP(=O)([O-])Oc3ccc(C(=O)C(=Cc4ccc(C(=O)[O-])cc4)c4ccc(OC)cc4)c(OC)c3)cc2OC)cc1.[Na+].[Na+].[Na+] [trisodium bis(4-(3-(4-carboxylatophenyl)-2-(4-methoxy-phenyl)-acryloyl)-3-methoxyphenyl) phosphate] | inhibit SRS | same order | equal to or superior to that of PPP | –
O=C(CCc1cccc(OP(=O)([O-])Oc2cccc(CCC(=O)c3ccc(O)cc3O)c2)c1)c1ccc(O)cc1O.[Na+] [sodium bis(3-(3-(2,4-dihydroxyphenyl)-3-oxopropyl)phenyl) phosphate] | inhibit SRS | same order | equal to or superior to that of PPP | –
O=C([O-])COc1cccc(C(=O)CCc2ccc(OP(=O)([O-])Oc3ccc(CCC(=O)c4cccc(OCC(=O)[O-])c4)cc3)cc2)c1.[Na+].[Na+].[Na+] [trisodium bis(4-(3-(3-(carboxylatomethoxy)phenyl)-3-oxopropyl)-phenyl) phosphate] | inhibit SRS | same order | equal to or superior to that of PPP | –
Cc1cc(OP(=O)([O-])Oc2ccc(CCC(=O)c3ccccc3O)c(C)c2)ccc1CCC(=O)c1ccccc1O.[Na+] [sodium bis(4-(3-(2-hydroxyphenyl)-3-oxopropyl)-3-methylphenyl) phosphate] | inhibit SRS | – | equal to or superior to that of PPP | –
O=C(CCc1ccc(OP(=O)([O-])Oc2ccc(CCC(=O)c3ccccc3O)cc2)cc1)c1ccccc1O.[Na+] [sodium bis(4-(3-(2-hydroxyphenyl)-3-oxopropyl)phenyl)phosphate] | inhibit SRS | – | equal to or superior to that of PPP | –
O=C([O-])c1ccc(CCC(=O)c2cccc(OP(=O)([O-])Oc3cccc(C(=O)CCc4ccc(C(=O)[O-])cc4)c3)c2)cc1.[Na+].[Na+].[Na+] [trisodium bis(3-(3-(4-carboxylatophenyl)propionyl)phenyl) phosphate] | inhibit SRS | same order | equal to or superior to that of PPP | –
O=C(CCc1cccc(OP(=O)([O-])Oc2cccc(CCC(=O)c3c(O)cc(O)cc3O)c2)c1)c1c(O)cc(O)cc1O.[Na+] [sodium bis(3-(3-(2,4,6-trihydroxyphenyl)-3-oxopropyl)phenyl) phosphate] | inhibit SRS | same order | equal to or superior to that of PPP | –
O=C(CCc1cccc(OP(=O)(O)Oc2cccc(CCC(=O)c3ccc(O)cc3)c2)c1)c1ccc(O)cc1 [sodium bis(3-(3-(4-hydroxyphenyl-3-oxopropyl)phenyl) phosphate] | inhibit SRS | same order | equal to or superior to that of PPP | –
O=C(CCc1ccc(OP(=O)([O-])Oc2ccc(CCC(=O)c3ccc(O)cc3O)cc2)cc1)c1ccc(O)cc1O.[Na+] [Sodium bis(4-(3-(2,4-dihydroxyphenyl)-3-oxopropyl)phenyl) phosphate] | inhibit SRS | same order | equal to or superior to that of PPP | give contraction in the same dose range
